Results from patent US10981932B2, “Macrocyclic indole derivatives” (Bayer Aktiengesellschaft, priority 2016, dated 2021).
Where a name gives a salt, the structure may show the parent alone. Read-outs that look alike come from different tables or passages of the source.

Key:
SUDHL5 [1] = experiment: Induction of caspase-3/7 activity (Caspase-Glo 3/7), SUDHL5; format: cell-based; details: caspase-3/7 induction, SUDHL5 cells, 3 h treatment, median
How it was run: (§1)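 Caspase-Glo 3/7 luminescence, 3 h compound exposure, 37 °C, humidified. Minus medium-only blank. EC50 fit: C0=1, plateau = reference max induction.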

SUDHL10 [2] = experiment: Induction of caspase-3/7 activity (Caspase-Glo 3/7), SUDHL10; format: cell-based; details: Homo sapiens, SU-DHL10, 3 h, caspase-3/7 induction, SUDHL10 cells, 3 h treatment; median
How it was run: as §1

SUDHL10 [3] = experiment: Induction of cytotoxicity (CellTiter-Glo, 5 h), SUDHL10; details: Homo sapiens, SU-DHL10, 5 h
A2780 = experiment: Anti-proliferative effect (CellTiter-Glo, 72 h), A2780; format: cell-based; details: A2780 cells, median, read-out: IC50 antiproliferation assay A2780 [M] (median)
How it was run: (§2)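 CTG luminescence read-out after 72 h compound exposure, 37 °C, humidified. Time-zero reference plate read at plating.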

SUDHL5 [4] = experiment: Induction of cytotoxicity (CellTiter-Glo, 5 h), SUDHL5
Method: Therefore, cytotoxicity assays were run in parallel in SUDHL5 and SUDHL10 cells.
The different cell lines were plated in culture medium (RPMI 1640 [GIBCO #22400-089]supplemented with 10% Fetal Bovine Serum) at a density of 3.300 cells in 30 μl/well in a sterile, solid black, flat bottom, polystyrene, TC-treated 384-well microplate (Corning #3571) using Multidrop Combi Reagent Dispenser. As a control, medium without cells was also added to the plate. Cells were incubated in a humidified incubator at 37° C. overnight. On the next day, the cells were treated with compounds (stock solution, 10 mM in DMSO) using the HP D300 Digital Dispenser in a concentration range of 3.3×10e-5 M (33 μM) to 5×10e-9 M (5 nM) in a single-dot curve with at least 16 dilutions and a DMSO concentration of 0.33%. Rim wells were excluded. The cells were incubated for 5 h hours in a humidified incubator at 37° C. After this incubation, 30 μl of CellTiter-Glo@ Luminescent Cell Viability reagent (Promega, G7573) was added to each well using the Multidrop Combi Reagent Dispenser, followed by 15 min incubation on a shaker at room temperature. Finally, luminescence was read at 0.1 ms, with a gain of 3000 using the PHERAstar FS microplate reader (BMG Labtech).
The Bella DRC Master Sheet was used to calculate IC50s, with fixed CI=0 and C0=1.

MCL-1 = MCL-1 (Homo sapiens, UniProt Q07820); experiment: Protein-protein interaction assay MCL-1/Noxa BH3 peptide (MCL-1 assay), TR-FRET; format: binding; details: MBP-MCL-1 / Noxa BH3-derived peptide, median
How it was run: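 Displacement of the biotinylated Noxa BH3 peptide from MBP-tagged human MCL-1 (1 nM) is detected by time-resolved FRET. Compounds are tested in duplicate across eleven concentrations up to 20 μM, incubated 1 h at 22 °C and overnight at 4 °C, and IC50 is fitted with a four-parameter equation.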

SUDHL10 [5] = experiment: Anti-proliferative effect (CellTiter-Glo, 72 h), SUDHL10; format: cell-based; details: SUDHL10 cells, antiproliferation, median, read-out: Antiproli SUDHL10 [M] (median)
Method: Assessment of the Anti-Proliferative Effect of Compounds in Different Cell Lines
The impact of compounds on the proliferation of different cell lines was assessed using the CellTiter-Glo® Luminescent Cell Viability reagent from Promega (G7573). Of note, SUDHL10 and SUDHL5 (DLBCL), NCI-H929 (Multiple Myeloma), A2780 (ovarian carcinoma) as well as MV-4-11(AML) cells are sensitive to MCL-1 inhibition.
In parallel, cells were plated in a reference (day 0) plate for time zero determination.
Rim wells were excluded. The cells were incubated for 72 h hours in a humidified incubator at 37° C. The day 0 plate was measured by adding 30 μl/well of CTG solution (CellTiter-Glo® Luminescent Cell Viability reagent, Promega G7573) to time zero wells in the reference plate followed by a 10 minutes incubation and luminescence reading at 0.1 ms, using the PHERAstar FS microplate reader (BMG Labtech).
After 72 h incubation, the treated plates were measured in the same way as the day 0 plate mentioned above.

SUDHL5 [6] = experiment: Anti-proliferative effect (CellTiter-Glo, 72 h), SUDHL5; format: cell-based; details: SUDHL5 cells, antiproliferation, median, read-out: Antiproli SUDHL5 [M] (median)
How it was run: as §2

[7] = read-out: Cytotox SUDHL10 [M] (median), SUDHL10 cells, cytotoxicity induction, CellTiter-Glo, 5 h incubation, median
[8] = Homo sapiens, SU-DHL-5, 5 h, read-out: Cytotox SUDHL5 [M] (median), SUDHL5 cells, cytotoxicity induction, CellTiter-Glo, 5 h incubation, median
[9] = Homo sapiens, SU-DHL10, 72 h, 72 h incubation
[10] = Homo sapiens, SU-DHL-5, 72 h, 72 h incubation

Chain of MCL-1 (Q07820 whole entry): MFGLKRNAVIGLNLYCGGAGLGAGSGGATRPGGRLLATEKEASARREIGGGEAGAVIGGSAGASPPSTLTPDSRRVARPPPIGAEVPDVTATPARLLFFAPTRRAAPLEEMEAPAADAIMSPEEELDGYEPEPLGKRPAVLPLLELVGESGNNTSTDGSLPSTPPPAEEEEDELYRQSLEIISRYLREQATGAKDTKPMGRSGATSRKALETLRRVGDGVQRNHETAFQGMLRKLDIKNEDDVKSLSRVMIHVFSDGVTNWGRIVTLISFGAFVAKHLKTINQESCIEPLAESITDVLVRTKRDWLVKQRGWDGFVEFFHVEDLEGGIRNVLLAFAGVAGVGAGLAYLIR

Row | SMILES | EC50 (SUDHL5 [1]; Homo sapiens, SU-DHL-5, 3 h) [µM] | EC50 (SUDHL10 [2]) [µM] | IC50 (A2780; Homo sapiens, A2780, 72 h) [M] | IC50 (MCL-1) [µM] | IC50 (SUDHL10 [5]; [9]) [M] | IC50 (SUDHL5 [6]; [10]) [M] | IC50 (A2780) [M] | EC50 (SUDHL5 [1]) [µM] | IC50 (SUDHL10 [5]; 72 h) [M] | IC50 (SUDHL5 [6]; 72 h) [M] | IC50 (SUDHL10 [3]; [7]) [M] | IC50 (SUDHL5 [4]; [8]) [M] | IC50 (SUDHL10 [3]; read-out: Cytotox SUDHL10 [M] (median), SUDHL10 cells, cytotoxicity induction, CellTiter-Glo, 5 h, median) | IC50 (SUDHL5 [4]; read-out: Cytotox SUDHL5 [M] (median), SUDHL5 cells, cytotoxicity induction, CellTiter-Glo, 5 h, median)
1 | Cc1ccc2c(CCCOc3cccc4ccccc34)c(C(=O)O)n3c2c1-c1c(C)nn(C)c1COCC=CC3 (racemic) [Example 038, (rac)-(E/Z)-1,3,4-trimethyl-7-[3-(1-naphthyloxy)propyl]-1,10,13,15-tetrahydropyrazolo[4′,3′:9,10][1,6]oxazacycloundecino[8,7,6-hi]indole-8-carboxylic Acid] | 13.9 | > 33 | > 3.3e-05 | 0.00965 | 1.46e-05 | 1.64e-05 | – | – | – | – | > 3.3e-05 | 1.46e-05 | – | –
2 | Cc1nn(C)c2c1-c1cccc3c(CCCOc4cccc5cc(Cl)ccc45)c(C(=O)O)n(c13)CCCCOC2 (racemic) [Example 040, (rac)-7-{3-[(6-chloronaphthalen-1-yl)oxy]propyl}-1,3-dimethyl-1,10,11,12,13,15-hexahydropyrazolo[4′,3′:9,10][1,6]oxazacycloundecino[8,7,6-hi]indole-8-carboxylic Acid] | 21 | > 33 | 1.9e-05 | 0.0144 | 3.25e-06 | 1.33e-05 | – | – | – | – | > 3.3e-05 | 1.66e-05 | – | –
3 | Cc1nn(C)c2c1-c1cccc3c(CCCOc4cccc5ccccc45)c(C(=O)O)n(c13)CCCOC2 (racemic) [Example 043, (rac)-9,11-dimethyl-1-[3-(naphthalen-1-yloxy)propyl]-5,6,8,9-tetrahydro-4H-pyrazolo[4′,3′:8,9][(1,5]oxazecino[7,6,5-hi]indole-2-carboxylic Acid] | 18.7 | > 33 | > 3.3e-05 | 0.0127 | 4.93e-06 | 1.05e-05 | 2.6e-05 | – | – | – | > 3.3e-05 | 1.79e-05 | – | –
4 | Cc1nn(C)c2c1-c1cccc3c(CCCOc4cccc5cc(F)ccc45)c(C(=O)O)n(c13)CCCOC2 (racemic) [Example 046, (rac)-1-{3-[(6-fluoronaphthalen-1-yl)oxy]propyl}-9,11-dimethyl-5,6,8,9-tetrahydro-4H-pyrazolo[4′,3′:8,9][1,5]oxazecino[7,6,5-hi]indole-2-carboxylic Acid] | 5.7 | 17 | 2.65e-05 | 0.0108 | 3.94e-06 | 6.27e-06 | – | – | – | – | 2.33e-05 | 6.09e-06 | – | –
5 | Cn1nc2c(c1CN1CCOCC1)-c1cccc3c(CCCOc4cccc5ccccc45)c(C(=O)O)n(c13)CCOCCOC2 (racemic) [Example 087] | > 33 | > 33 | > 3.3e-05 | 0.097 | 1.41e-05 | > 3.3e-05 | – | – | – | – | > 3.3e-05 | > 3.3e-05 | – | –
6 | Cc1nn(CC(F)(F)F)c2c1-c1cccc3c(CCCOc4cccc5ccccc45)c(C(=O)O)n(c13)C/C=C\COC2 (racemic) [Example 098, (rac)-(11Z)-3-methyl-7-[3-(naphthalen-1-yloxy)propyl]-12-(2,2,2-trifluoroethyl)-1,10,13,15-tetrahydropyrazolo[4′,3′:9,10][1,6]oxazacycloundecino[8,7,6-hi]indole-8-carboxylic Acid] | > 33 | > 33 | 2.09e-05 | 0.0827 | 1.15e-05 | 2.74e-05 | – | – | – | – | > 3.3e-05 | 2.94e-05 | – | –
7 | COc1ccc(OCc2nn(C)c3c2-c2cccc4c(CCCOc5cccc6ccccc56)c(C(=O)O)n(c24)CCCCOC3)cc1 (single isomer, unassigned; enantiomer 1) [Example 320, 3-[(4-methoxyphenoxy)methyl]-1-methyl-7-[3-(naphthalen-1-yloxy)propyl]-1,10,11,12,13,15-hexahydropyrazolo[4′,3′:9,10][1,6]oxazacycloundecino[8,7,6-hi]indole-8-carboxylic Acid-N-ethylethanamine Salt (Enantiomer 1)] | – | – | 1.41e-05 | 0.0226 | – | – | – | 13.8 | 9.36e-06 | 5.43e-06 | – | – | 2.29e-05 | 1.1e-05
8 | Cc1c2c(nn1CC(F)(F)F)COCCCCn1c(C(=O)O)c(CCCOc3cccc4ccccc34)c3cccc-2c31 [Example 241, 3-methyl-7-[3-(naphthalen-1-yloxy)propyl]-2-(2,2,2-trifluoroethyl)-210,11,12,13,15-hexahydropyrazolo[4′,3′:9,10][1,6]oxazacycloundecino[8,7,6-hi]indole-8-carboxylic Acid] | 3.75 | 17.1 | 2.89e-05 | 0.00751 | – | 9.89e-06 | – | – | – | – | 1.92e-05 | 4.64e-06 | – | –

These reach a lower IC50 (MCL-1). Values come first.

Row | EC50 (SUDHL5 [1]; Homo sapiens, SU-DHL-5, 3 h) [µM] | EC50 (SUDHL10 [2]) [µM] | IC50 (A2780; Homo sapiens, A2780, 72 h) [M] | IC50 (MCL-1) [µM] | IC50 (SUDHL10 [5]; [9]) [M] | IC50 (SUDHL5 [6]; [10]) [M] | IC50 (A2780) [M] | EC50 (SUDHL5 [1]) [µM] | IC50 (SUDHL10 [5]; 72 h) [M] | IC50 (SUDHL5 [6]; 72 h) [M] | SMILES | IC50 (SUDHL10 [3]; [7]) [M] | IC50 (SUDHL5 [4]; [8]) [M] | IC50 (SUDHL10 [3]; read-out: Cytotox SUDHL10 [M] (median), SUDHL10 cells, cytotoxicity induction, CellTiter-Glo, 5 h, median) | IC50 (SUDHL5 [4]; read-out: Cytotox SUDHL5 [M] (median), SUDHL5 cells, cytotoxicity induction, CellTiter-Glo, 5 h, median)
9 | 6.16 | 20.2 | 2.48e-05 | 0.00708 | 2.06e-06 | 8.25e-06 | – | – | – | – | Cc1c2c(nn1C1CC1)COCCCCn1c(C(=O)O)c(CCCOc3cccc4ccccc34)c3cccc-2c31 (racemic) [Example 092, (rac)-2-cyclopropyl-3-methy-7-[3-(naphthalen-1-yloxy)propyl]-2,10,11,12,13,15-hexahydropyrazolo[4′,3′:9,10][1,6]oxazacycloundecino[8,7,6-hi]indole-8-carboxylic Acid] | 2.23e-05 | 6.75e-06 | – | –
10 | 13.5 | > 33 | 2.35e-05 | 0.00694 | 2.67e-05 | 1.76e-05 | – | – | – | – | CCn1nc(C2CC2)c2c1COCCCCn1c(C(=O)O)c(CCCOc3cccc4ccccc34)c3cccc-2c31 (racemic) [Example 088, (rac)-3-Cyclopropyl-1-ethyl-7-[3-(naphthalen-1-yloxy)propyl]-1,10,11,12,13,15-hexahydropyrazolo[4′,3′:9,10][1,6]oxazacycloundecino[8,7,6-hi]indole-8-carboxylic Acid] | > 3.3e-05 | 1.1e-05 | – | –
11 | 2.53 | 8.57 | – | 0.00427 | 7.54e-06 | 4.3e-06 | – | – | – | – | CCc1c2c(nn1CCN1CCOCC1)COCCCCn1c(C(=O)O)c(CCCOc3cccc4ccccc34)c3cccc-2c31 (racemic) [Example 201, (rac)-3-ethyl-2-[2-(morpholin-4-yl)ethyl]-7-[3-(naphthalen-1-yloxy)propyl]-2,10,11,12,13,15-hexahydropyrazolo[4′,3′:9,10][1,6]oxazacycloundecino[8,7,6-hi]indole-8-carboxylic Acid] | 7.98e-06 | 2.57e-06 | – | –
12 | 14.2 | > 33 | 1.57e-05 | 0.00318 | 6.98e-06 | 1.1e-05 | – | – | – | – | Cc1cc2c(OCCCc3c(C(=O)O)n4c5c(cccc35)-c3c(C)nn(C)c3COCCCC4)cccc2cc1F (racemic) [Example 049, (rac)-7-{3-[(6-fluoro-7-methylnaphthalen-1-yl)oxy]propyl}-1,3-dimethyl-1,10,11,12,13,15-hexahydropyrazolo[4′,3′:9,10][1,6]oxazacycloundecino[8,7,6-hi]indole-8-carboxylic Acid] | 3.14e-05 | 1.13e-05 | – | –
